# Test results: patent publication US10111897B2, “Compositions and methods for treating cancer with JAK2 activity” (Duke University, priority 2013, dated 2018)
# Columns and labels:
# [1] = system: HEL92.1.7 cells; assay: GI50 assay (Cell Titer Glo viability); type: cell-based, human; conditions: for sensitivity of parental and engineered Ras effector-activated cells (viability and apoptosis): HEL92.1.7 ORF-expressing derivatives, apoptosis at 48 hours; for resensitization of Ras-expressing cells to INCB, dual ERK and Akt inhibition: INCB with both VX-11E (2 μM) and MK-2206 (10 μM)
# Description: (§1) Cells were seeded into 6-well plates and infected with the desired ORF activating allele or control vector. Lentiviruses were produced and applied as previously described (42). Following two days of puromycin selection (2 μg/ml), infected cells were seeded into 96-well plates at 5,000 cells/well.
# (§2) To generate […] curves, cells were treated with vehicle (DMSO) or an eight-log serial dilution of drug to yield final concentrations of […]. Each treatment condition was represented by at least three replicates. Three to four days after drug addition, cell viability was measured using Cell Titer Glo® (Promega). Relative viability was then calculated by normalizing luminescence values for each treatment condition to control treated wells.
# (§3) To generate GI50 curves for drug combinations, slight modifications are made. Primary drug was applied and diluted as above while the second drug was kept at a constant concentration across all wells except the DMSO-only condition. Viability for all primary drug dilutions was then calculated relative to luminescence values from the secondary drug-only condition. Dose-response curves were fit using Graph pad/Prism 6 software.
# [2] = system: Set2 cells; assay: GI50 assay (Cell Titer Glo viability); type: cell-based, human; conditions: for sensitivity of parental and engineered Ras effector-activated cells (relative proliferation): Set2 ORF-expressing derivatives; for sensitization of resistant and parental Set2 cells to JAK inhibitors, co-inhibition of Akt and ERK pathways: MK-2206 plus AZD-6244 (2 μM) plus respective JAK inhibitor
# Description: as §1, §2, §3
# [3] = JAK inhibitor combined with ABT-737; cited from earlier work
# [4] = patients suffering from MPNs; cited from earlier work
# [5] = system: BAD; assay: BAD phosphorylation immunoblot in HEL92.1.7 derivatives; type: cell-based, human; conditions: Ras (G12V)-transduced HEL92.1.7, 6 hours of treatment
# Description: FIG. 10. BAD activity, governed by phosphorylation status at Ser 112 and 136, dictates drug sensitivity and induction of apoptosis in both the drug-sensitive and resistant state. (A-C) After 6 hours of treatment with the specified drugs, protein lysates were prepared from either myr-Akt-transduced HEL92.1.7 (A), Ras (G12V)-transduced HEL92.1.7 (B), Set2-Parental, or Set2-CYTR cells (C) and immunoblotted with the indicated antibodies. Blots are representative of three replicate experiments. […] (E, F) HEL92.1.7 derivatives stably expressing the indicated ORFs were transduced with a second ORF expressing either a second control vector or BAD2SA. (E) Twenty-four hours after selection, cells were stained with 7AAD and Annexin V to measure the induction of apoptosis. Error bars indicate SD of three replicate experiments.
# Immunoblotting was performed as previously described (42) and membranes were probed with primary antibodies (1:1000 dilution) recognizing p-STAT5, STAT5, p-STAT3, STAT3, BAD, p-BAD Ser112, p-BAD Ser136, p-Akt (Thr308), Akt, p-ERK1/2 (Thr202/Tyr204), ERK1/2, Pim1, BCL-XL, BCL-2, MCL-1, Bim, Bax, Bak, NaATPase, and β-Actin. All antibodies were purchased from Cell Signaling Technology.
# [6] = system: multiple JAK2^V617F cell lines; conditions: parental JAK2^V617F cell lines (HEL92.1.7 72 h, Set2 24 h)
# Description: Error bars indicate SD of three replicate experiments. (B) Digitonin-permeabilized HEL92.1.7 cells transduced with the indicated constructs were stained with the mitochondrial potential-sensitive JC1 dye and treated with a panel of BH3 peptides. Percent depolarization is shown as the area under the curve (AUC) normalized to positive control fully depolarized mitochondria (FCCP). DMSO serves as the negative control. Data shown are representative of three independent experiments for each cell line derivative. (C) Same as in (B) except in this case the indicated JAK2^V617F positive cell lines were profiled to query their apoptotic dependencies. […] Blots are representative of three replicate experiments. (E) Twenty-four hours after transduction with the indicated ORFs, HMLE and HEL92.1.7 cells were stained with 7AAD and Annexin V to measure induction of apoptosis. Error bars indicate SD of three replicate experiments.
# Cells were seeded in six-well plates and treated with either the indicated amount of drug or vehicle (DMSO). Cells were incubated for the indicated time, washed twice with ice-cold PBS, and resuspended in IX Annexin V binding buffer (10 mM HEPES, 140 mM NaCl, 2.5 mM CaCl2; BD Biosciences). Surface exposure of phosphatidylserine was measured using APC-conjugated Annexin V (BD Biosciences). […] Experiments were analyzed at 20,000 counts/sample using BD FACSVantage SE. […]
Compound,sensitivity of parental and engineered Ras effector-activated cells (viability and apoptosis) [1],sensitivity of parental and engineered Ras effector-activated cells (relative proliferation) [2],"sensitization of resistant and parental Set2 cells to JAK inhibitors, co-inhibition of Akt and ERK pathways [2]","resensitization of Ras-expressing cells to INCB, dual ERK and Akt inhibition [1]",further results
CC1(C)CCC(CN2CCN(c3ccc(C(=O)NS(=O)(=O)c4ccc(NCC5CCOCC5)c([N+](=O)[O-])c4)c(Oc4cnc5[nH]ccc5c4)c3)CC2)=C(c2ccc(Cl)cc2)C1 [ABT-199],insensitive,insensitive,–,–,–
CN(C)CC[C@H](CSc1ccccc1)Nc1ccc(S(=O)(=O)NC(=O)c2ccc(N3CCN(Cc4ccccc4-c4ccc(Cl)cc4)CC3)cc2)cc1[N+](=O)[O-] [ABT-737],sensitive,sensitive,–,–,responses relative to JAK inhibitor monotherapy [3]: improved responses; sensitivity of independently evolved JAK inhibitor-resistant cells compared to matched parental cells ([2]; Set2-INCBR and Set2-CYTR vs Set2-Parental): equally sensitive
Cn1cnc2c(F)c(Nc3ccc(Br)cc3Cl)c(C(=O)NOCCO)cc21 [AZD-6244],–,–,further sensitized,–,–
N#CC[C@H](C1CCCC1)n1cc(-c2ncnc3[nH]ccc23)cn1 [INCB],–,–,–,–,patients with transient reduction of spleen size and alleviation of some symptoms [4]: about 50 % of patients; BAD phosphorylation at Ser 112 and 136 in Ras-expressing cells [5]: remained phosphorylated; induction of apoptosis (Annexin-V staining) [6]: induces apoptosis
NC1(c2ccc(-c3nc4ccn5c(=O)[nH]nc5c4cc3-c3ccccc3)cc2)CCC1 [MK-2206],–,–,further sensitized,resensitized,"resensitization of Akt-expressing cells to INCB ([1]; INCB plus second drug at constant concentration (MK-2206 10 μM; BEZ-235 0.2 μM)): fully resensitized; resensitization of Set2-CYTR and Set2-INCBR cells to JAK inhibitors ([2]; Akt inhibition with MK-2206 plus respective JAK inhibitor, compared with parental GI50 values): resensitized"
Cc1cnc(Nc2ccc(F)cc2Cl)nc1-c1c[nH]c(C(=O)N[C@H](CO)c2cccc(Cl)c2)c1 [VX-11E],–,–,–,resensitized,–
